Laboratory results taken from patent publication US9486506B2 (Novo Nordisk A/S, priority 2011, dated 2016).
Numbered stars: 1 amine (or outer) side, 2 acyl side, 3 side chain; on linkers, the order of the positions; unused ones are H or OH. Side chains are listed from the residue outwards. Peptide text beside a SMILES is read from it. * marks the point of attachment. C16 diacid = O=C(O)CCCCCCCCCCCCCCC(=O)*; γGlu = O=C(O)[C@H](CCC(=O)[*:2])N[*:1]

Biological target: T1, glucagon receptor (Homo sapiens, UniProt P47871)
T1 construct: expressed in transfected cells
Test: Assay (I) Glucagon activity (cAMP biosensor, FLIPR)
Assay type: cell-based
Method: The cells (14000 per well) were incubated (37° C., 5% CO2) overnight in 384-well plates. Next day the cells were loaded with a calcium responsive dye that only distributed into the cytoplasm. Probenecid, an inhibitor of the organic anion transporter, was added to prevent the dye from leaving the cell. A PDE inhibitor was added to prevent formatted cAMP from being degraded. The plates were placed into a […] and the glucagon analogues were added. End point data were collected after 6 minutes. An increase in intracellular cAMP was proportional to an increased in calcium concentrations in the cytoplasm. When calcium was bound the dry a fluorescence signal was generated. EC50-values were calculated in Prism5.

T1 sequence (P47871 26-477): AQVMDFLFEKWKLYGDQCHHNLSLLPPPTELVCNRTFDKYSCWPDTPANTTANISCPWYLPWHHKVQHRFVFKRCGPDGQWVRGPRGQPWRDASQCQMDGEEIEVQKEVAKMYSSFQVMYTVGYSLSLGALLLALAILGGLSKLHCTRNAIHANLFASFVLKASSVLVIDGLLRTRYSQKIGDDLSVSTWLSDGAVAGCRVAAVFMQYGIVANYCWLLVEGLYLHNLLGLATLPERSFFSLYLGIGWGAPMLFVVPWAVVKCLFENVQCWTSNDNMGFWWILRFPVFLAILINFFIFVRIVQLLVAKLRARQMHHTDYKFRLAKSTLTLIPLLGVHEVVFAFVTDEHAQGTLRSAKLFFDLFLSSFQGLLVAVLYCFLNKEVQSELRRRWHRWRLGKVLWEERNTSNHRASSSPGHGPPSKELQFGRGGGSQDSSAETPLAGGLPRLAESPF

Compound | EC50 [nM]
CC(C)C[C@H](NC(=O)[C@H](Cc1ccc(O)cc1)NC(=O)[C@H](CCCNC(=N)N)NC(=O)[C@H](CO)NC(=O)[C@H](Cc1ccc(O)cc1)NC(=O)[C@H](CC(=O)O)NC(=O)[C@H](CO)NC(=O)[C@@H](NC(=O)[C@H](Cc1ccccc1)NC(=O)[C@@H](NC(=O)CNC(=O)[C@H](CCC(N)=O)NC(=O)[C@H](CO)NC(=O)[C@@H](N)Cc1c[nH]cn1)[C@@H](C)O)[C@@H](C)O)C(=O)N[C@@H](CC(=O)O)C(=O)N[C@@H](C)C(=O)N[C@@H](CCCNC(=N)N)C(=O)N[C@@H](CCCNC(=N)N)C(=O)N[C@@H](C)C(=O)N[C@@H](CCC(N)=O)C(=O)N[C@@H](CC(=O)O)C(=O)N[C@@H](Cc1ccccc1)C(=O)N[C@H](C(=O)N[C@@H](CCCCNC(=O)CC[C@H](NC(=O)CC[C@H](NC(=O)CC[C@H](NC(=O)CC[C@H](NC(=O)CCCCCCCCCCCCCCC(=O)O)C(=O)O)C(=O)O)C(=O)O)C(=O)O)C(=O)N[C@@H](Cc1c[nH]c2ccccc12)C(=O)N[C@@H](CC(C)C)C(=O)N[C@@H](CC(C)C)C(=O)N[C@@H](CO)C(=O)N[C@H](C(=O)O)[C@@H](C)O)C(C)C [Example 73, N^ε24-[(4S)-4-carboxy-4-[[(4S)-4-carboxy-4-[[(4S)-4-carboxy-4-[[(4S)-4-carboxy-4-(15-carboxypentadecanoylamino)butanoyl]amino]butanoyl]amino]butanoyl]amino]butanoyl]-[Arg12,Ala16,Lys24,Leu27,Ser28]-Glucagon] (H-HSQGTFTSDYSRYLDARRAQDFVK([γGlu-γGlu-γGlu-γGlu-C16 diacid])WLLST-OH) | 0.106
CC(C)C[C@H](NC(=O)[C@H](CC(N)=O)NC(=O)[C@H](CC(C)C)NC(=O)[C@H](CC(C)C)NC(=O)[C@H](Cc1c[nH]c2ccccc12)NC(=O)[C@H](CCCCNC(=O)CC[C@H](NC(=O)COCCOCCNC(=O)COCCOCCNC(=O)CC[C@H](NC(=O)CCCCCCCCCCCCCCCCC(=O)O)C(=O)O)C(=O)O)NC(=O)[C@@H](NC(=O)[C@H](Cc1ccccc1)NC(=O)[C@H](CC(=O)O)NC(=O)[C@H](CCC(N)=O)NC(=O)[C@H](C)NC(=O)[C@H](CCCNC(=N)N)NC(=O)[C@H](CCCNC(=N)N)NC(=O)[C@H](CO)NC(=O)[C@H](CCC(=O)O)NC(=O)[C@H](CC(C)C)NC(=O)[C@H](Cc1ccc(O)cc1)NC(=O)[C@H](CCCCN)NC(=O)[C@H](CO)NC(=O)[C@H](Cc1ccc(O)cc1)NC(=O)[C@H](CC(=O)O)NC(=O)[C@H](CO)NC(=O)[C@@H](NC(=O)[C@H](Cc1ccccc1)NC(=O)[C@@H](NC(=O)CNC(=O)[C@H](CCC(N)=O)NC(=O)[C@H](CO)NC(=O)[C@@H](N)Cc1c[nH]cn1)[C@@H](C)O)[C@@H](C)O)C(C)C)C(=O)O [Example 34, N^ε24-[(4S)-4-carboxy-4-[[2-[2-[2-[[2-[2-[2-[[(4S)-4-carboxy-4-(17-carboxyheptadecanoylamino)butanoyl]amino]ethoxy]ethoxy]acetyl]amino]ethoxy]ethoxy]acetyl]amino]butanoyl]-[Glu15,Lys24,Leu27,Leu29]-Glucagon] | 1.9
